The source of these data is patent publication US11186534B2, “Derivatives of sulindac can protect normal cells against oxidative damage” (University of South Alabama, priority 2017, dated 2021).

For assay [1], the system named is Retinal pigmented epithelium cells (ARPE-19). Description: Cell viability assay: protection of RPE cells against oxidative damage from TBHP. The class given is cell-based. As for the experimental part:
Cultured cells and reagents: Retinal pigmented epithelium cells (ARPE-19) were obtained from American Type Culture Collection (ATCC, Manassas, Va.) and cultured at 37° C. in 5% CO2. All chemicals were purchased from Sigma unless specified.
Cell viability assay: Cells were cultured and assayed for cell viability essentially as described previously (14). ARPE-19 cells were plated at 10,000 cells per well in a 96-well plate. The cells were grown for 18-20 hours, the medium discarded in aseptic conditions and replaced with fresh culture medium containing the indicated drug concentration. The plates were incubated for 24 hours at 37° C. in a 5% CO2 incubator in the presence of sulindac or Compound 9. To examine the treatment effects on oxidative damage to RPE cells, cells were washed and incubated in media without serum with various concentrations of tert-butyl hydroperoxide (TBHP) for an additional 24h. The culture medium was then discarded and the cells were thoroughly rinsed in PBS. Cell viability was determined by using the Cell Titer 96 Aqueous One Cell Proliferation Assay (Promega) according to the manufacturer's instructions. The assay utilizes a tetrazolium compound that is converted into a water-soluble formazan by the action of cellular NADH oxidase activity in metabolically active cells. The formazan was quantified by measuring the absorbance at 490 nm using a colorimetric microtiter plate reader (SpectraMax Plus; Molecular Devices).
In the present studies, a series of compounds were identified as having the ability to protect RPE cells against oxidative damage using tert-butyl hydroperoxide (TBHP), an organic peroxide, as an oxidizing agent (10).

A further assay addresses T1, ovine COX-1 (Ovis aries, UniProt P05979).
T1 construct: purchased Cayman Chemical 700100
T1 sequence (P05979 25-600): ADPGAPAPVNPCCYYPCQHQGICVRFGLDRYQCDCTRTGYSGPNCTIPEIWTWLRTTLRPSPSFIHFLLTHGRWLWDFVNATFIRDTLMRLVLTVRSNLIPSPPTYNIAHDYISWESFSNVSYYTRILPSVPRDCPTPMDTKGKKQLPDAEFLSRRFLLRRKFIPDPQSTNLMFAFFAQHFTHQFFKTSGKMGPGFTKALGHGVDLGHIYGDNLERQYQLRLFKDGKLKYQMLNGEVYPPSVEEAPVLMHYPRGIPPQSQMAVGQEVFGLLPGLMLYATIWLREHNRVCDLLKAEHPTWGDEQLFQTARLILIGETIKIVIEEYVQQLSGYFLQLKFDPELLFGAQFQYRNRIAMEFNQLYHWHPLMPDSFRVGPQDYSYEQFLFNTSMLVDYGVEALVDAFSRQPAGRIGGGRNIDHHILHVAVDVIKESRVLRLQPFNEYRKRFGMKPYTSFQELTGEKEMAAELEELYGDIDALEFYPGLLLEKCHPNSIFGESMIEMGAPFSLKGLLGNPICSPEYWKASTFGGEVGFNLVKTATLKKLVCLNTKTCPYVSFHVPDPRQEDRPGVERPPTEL
Description: COX Fluorescent Inhibitor Screening assay, COX-1. Format: biochemical. Conditions: FIG. 4A. As for the experimental part:
Compounds were assayed for cyclooxygenase (COX) inhibition using the COX Fluorescent Inhibitor Screening Kit from Cayman Chemical (Item #: 700100). Briefly, COX enzyme (ovine COX-1 or human recombinant COX-2) diluted in 1× reaction buffer is incubated with the compound or DMSO control for 20 min at 25° C. in a half-area 96-well black microplate. Background wells are also included that contained no enzyme. Added to each well were heme B, to ensure enzyme activity, and 10-acetyl-3,7-dihydroxyphenoxazine (ADHP) assay reagent. After the 20 min incubation, arachidonic acid (AA) substrate was added to all wells. As shown by the schematic diagram below, active COX enzyme converts AA to hydroperoxy endoperoxide (PGG2). Catalyzed by the secondary peroxidase activity of COX, ADHP can react with PGG2 to form a highly fluorescent compound, resorufin. Fluorescence was measured with a […] excitation wavelength and a 585-595 nm emission wavelength. Decreased fluorescence relative to the DMSO control indicates COX inhibition. See, also, Piazza G A, Keeton A B, Tinsley H N, Gary B D, Whitt J D, Mathew B, Thaiparambil J, Coward L, Gorman, G, Li Y, Sani B, Hobrath J V, Maxuitenko Y Y and Reynolds R C. […] Cancer Prevention Research 2009; 2: 572-580.

In assay [2] the test system is PDE isozymes 1-11 (except PDE6). Description: IMAP fluorescence polarization PDE assay, panel of PDE isozymes. Format: biochemical. Conditions: 25 μM; FIG. 5C. As for the experimental part:
PDE activity was measured using the IMAP fluorescence polarization PDE assay (Molecular Devices) in which the binding of hydrolyzed fluorescent cyclic nucleotide substrate to the IMAP reagent increases fluorescence polarization. Each well of a 96-well nonbinding plate contained 0.25 mg/mL of recombinant enzyme preparations. Enzymes were incubated with COMPOUND 9 or vehicle (DMSO) for 30 min at 30° C. before the addition of a substrate mixture containing 25 nmol/L of fluorescein-cGMP. The DMSO final concentration for each experiment was 2%. After 90 min of incubation at 30° C., the reaction was terminated by the addition of binding reagent. The maximum Fluorescence polarization was measured using a Synergy4 (BioTek) plate reader.
Background: In fluorescence polarisation assays a small probe gives low polarisation when free and higher when bound to something large.

For assay [3], the system named is rat intact hearts (Langendorff model). Description: Langendorff model of ischemia/reperfusion injury, infarct size by TTC staining. The class given is in vivo, Sprague Dawley rats. Conditions: 45 min ischemia and 2 h reperfusion; 0.7 mg/kg daily for 48 h; FIG. 8. As to the method:
The ex vivo Langendorff procedure is a well-established preparation used to investigate heart physiology, ischemia/reperfusion injury, and other cardiovascular insults (23, 24; also see, e.g., reference 22). Sprague Dawley rats (275-325g) were administered either no drug or Compound 9 daily (at 0.7 mg/kg) for a total of two days (two administrations in total). Forty-eight hours after the start of drug exposure, hearts were removed and exposed to 45 min no flow ischemia and 2 h reperfusion in the Langendorff model (hearts were first equilibrated in KHB buffer for 10 min and then subjected to 45 min ischemia followed by 2 h reperfusion with KHB buffer), in the absence of drug.
In LDH and TTC assays for the Langendorff Preparation, coronary effluent samples (500 μL) from the Langendorff preparation were obtained upon attachment of excised heart, every 15 min before ischemia, immediately after 45 min ischemia, and at 15 min intervals during reperfusion. LDH was measured (using a Cytotox-96 nonradioactive cytotoxicity assay kit (Promega), with the absorbance read at 490 nm). […]
The protective (preconditioning) effect of Compound 9 was evaluated in an art-recognized Langendorff model of ischemia/reperfusion injury. […]

On to `COc1cc2c(cc1OC)/C(=C\c1cc(OC)c(OC)c(OC)c1)C(C)=C2CC(=O)O` [Compound 9, (Z)-2-(5,6-dimethoxy-2-methyl-1-(3,4,5-trimethoxybenzylidene)-1H-inden-3-yl)acetic acid], for which the “Cyto-protective activity*” value in assay [1] (RPE cells, TBHP as oxidizing agent, relative to Sulindac) is recorded as “active”. In assay [1] (Rp-Br-8-PET-cGMPS 500 μM, 24 h, FIG. 6C), the “Protective effect on RPE cells in combination with PKG inhibitor Rp-Br-8-PET-cGMPS” value is on record as “reduces the protection”. Moreover, in assay [1] (TBHP, FIG. 3), the “Lowest concentration found effective in protecting RPE cells” value is 10 µM. Besides, the “Protective effect on RPE cells in combination with PKC inhibitor chelerythrine” value in assay [1] (chelerythrine 2 μM, 24 h, FIG. 6B) was “significantly reduces the protective effect”. Besides, the “TBHP concentration up to which complete protection of RPE cells was provided” value in assay [1] (compound at 25 μM, FIG. 2) was no more than 400 µM. Also, in assay [1] (on a molar basis, stated as 'may be'), the “Times more active than sulindac in protecting RPE cells and other cells from oxidative damage” value is recorded as “at least 10 times”. Also, in assay [1] (sulindac 200 μM, Compound 10 at 25 μM, Compound 9 at 10 μM), the “Fold lower effective concentration relative to sulindac (RPE cell protection)” value was 20 ×. In addition, in assay [1] (tiron 1 mM, 24 h, FIG. 6A), the “Protective effect on RPE cells in combination with ROS scavenger tiron” value was “attenuates the protective effect”. Also, the “COX-1 inhibition: fold less potent than sulindac sulfide (SS)” value at ovine COX-1 was no less than 20 ×. For the same molecule, in assay [2], the “Inhibition of other cGMP PDE isozymes, including PDE 1, 2, 3 and 11” value is “lower inhibitory effects”; the PDE isozyme selectivity result is “most active against PDE5 and 10”. For the same molecule, the “Infarction size (percent of heart infarcted, TTC staining)” value in assay [3] is listed as “below 20%”.
